Measurements from the CheMixHub viscosity set.
± gives the uncertainty stated by the source.

Assay: xn = mol fraction of the nth substance listed

CCCCCCO + COC(=O)OC
Settings	viscosity [mPa·s]
293.15 K, 100 kPa, x2 = 0.1003	3.53 ± 0.64
293.15 K, 100 kPa, x2 = 0.1998	2.47 ± 0.44
293.15 K, 100 kPa, x2 = 0.3011	1.87 ± 0.34
293.15 K, 100 kPa, x2 = 0.4001	1.51 ± 0.27
293.15 K, 100 kPa, x2 = 0.5007	1.24 ± 0.22
293.15 K, 100 kPa, x2 = 0.5987	0.95 ± 0.17
293.15 K, 100 kPa, x2 = 0.7003	0.77 ± 0.14
293.15 K, 100 kPa, x2 = 0.8013	0.71 ± 0.13
293.15 K, 100 kPa, x2 = 0.9002	0.61 ± 0.11
293.15 K, 101 kPa, x2 = 0.04349	4.578
293.15 K, 101 kPa, x2 = 0.1014	3.717
293.15 K, 101 kPa, x2 = 0.1936	2.761
293.15 K, 101 kPa, x2 = 0.3033	2.046
293.15 K, 101 kPa, x2 = 0.4078	1.6
293.15 K, 101 kPa, x2 = 0.5026	1.302
293.15 K, 101 kPa, x2 = 0.602	1.06
293.15 K, 101 kPa, x2 = 0.699	0.883
293.15 K, 101 kPa, x2 = 0.8055	0.756
293.15 K, 101 kPa, x2 = 0.9079	0.685
293.15 K, 101 kPa, x2 = 0.9562	0.648
298.15 K, 100 kPa, x2 = 0.1003	3.06 ± 0.55
298.15 K, 100 kPa, x2 = 0.1998	2.17 ± 0.39
298.15 K, 100 kPa, x2 = 0.3011	1.66 ± 0.3
298.15 K, 100 kPa, x2 = 0.4001	1.34 ± 0.24
298.15 K, 100 kPa, x2 = 0.5007	1.12 ± 0.2
298.15 K, 100 kPa, x2 = 0.5987	0.92 ± 0.17
298.15 K, 100 kPa, x2 = 0.7003	0.77 ± 0.14
298.15 K, 100 kPa, x2 = 0.8013	0.66 ± 0.12
298.15 K, 100 kPa, x2 = 0.9002	0.57 ± 0.1
303.15 K, 100 kPa, x2 = 0.1003	2.67 ± 0.48
303.15 K, 100 kPa, x2 = 0.1998	1.93 ± 0.35
303.15 K, 100 kPa, x2 = 0.3011	1.48 ± 0.27
303.15 K, 100 kPa, x2 = 0.4001	1.23 ± 0.22
303.15 K, 100 kPa, x2 = 0.5007	1.02 ± 0.18
303.15 K, 100 kPa, x2 = 0.5987	0.84 ± 0.15
303.15 K, 100 kPa, x2 = 0.7003	0.72 ± 0.13
303.15 K, 100 kPa, x2 = 0.8013	0.61 ± 0.11
303.15 K, 100 kPa, x2 = 0.9002	0.54 ± 0.1
303.15 K, 101 kPa, x2 = 0.04993	3.355
303.15 K, 101 kPa, x2 = 0.1121	2.759
303.15 K, 101 kPa, x2 = 0.1985	2.135
303.15 K, 101 kPa, x2 = 0.3013	1.623
303.15 K, 101 kPa, x2 = 0.4548	1.153
303.15 K, 101 kPa, x2 = 0.4939	1.069
303.15 K, 101 kPa, x2 = 0.5585	0.951
303.15 K, 101 kPa, x2 = 0.7038	0.747
303.15 K, 101 kPa, x2 = 0.7977	0.649
303.15 K, 101 kPa, x2 = 0.9079	0.571
303.15 K, 101 kPa, x2 = 0.9534	0.548
308.15 K, 100 kPa, x2 = 0.1003	2.35 ± 0.42
308.15 K, 100 kPa, x2 = 0.1998	1.71 ± 0.31
308.15 K, 100 kPa, x2 = 0.3011	1.33 ± 0.24
308.15 K, 100 kPa, x2 = 0.4001	1.07 ± 0.19
308.15 K, 100 kPa, x2 = 0.5007	0.93 ± 0.17
308.15 K, 100 kPa, x2 = 0.5987	0.78 ± 0.14
308.15 K, 100 kPa, x2 = 0.7003	0.67 ± 0.12
308.15 K, 100 kPa, x2 = 0.8013	0.57 ± 0.1
308.15 K, 100 kPa, x2 = 0.9002	0.53 ± 0.1
313.15 K, 100 kPa, x2 = 0.1003	2.07 ± 0.37
313.15 K, 100 kPa, x2 = 0.1998	1.53 ± 0.28
313.15 K, 100 kPa, x2 = 0.3011	1.21 ± 0.22
313.15 K, 100 kPa, x2 = 0.4001	0.99 ± 0.18
313.15 K, 100 kPa, x2 = 0.5007	0.86 ± 0.16
313.15 K, 100 kPa, x2 = 0.5987	0.72 ± 0.13
313.15 K, 100 kPa, x2 = 0.7003	0.62 ± 0.11
313.15 K, 100 kPa, x2 = 0.8013	0.53 ± 0.1
313.15 K, 100 kPa, x2 = 0.9002	0.48 ± 0.09
313.15 K, 101 kPa, x2 = 0.05023	2.521
313.15 K, 101 kPa, x2 = 0.1223	2.039
313.15 K, 101 kPa, x2 = 0.2131	1.599
313.15 K, 101 kPa, x2 = 0.3291	1.223
313.15 K, 101 kPa, x2 = 0.4005	1.061
313.15 K, 101 kPa, x2 = 0.4874	0.911
313.15 K, 101 kPa, x2 = 0.5997	0.76
313.15 K, 101 kPa, x2 = 0.6524	0.713
313.15 K, 101 kPa, x2 = 0.7994	0.572
313.15 K, 101 kPa, x2 = 0.9089	0.514
313.15 K, 101 kPa, x2 = 0.9495	0.501
318.15 K, 100 kPa, x2 = 0.1003	1.83 ± 0.33
318.15 K, 100 kPa, x2 = 0.1998	1.37 ± 0.25
318.15 K, 100 kPa, x2 = 0.3011	1.09 ± 0.2
318.15 K, 100 kPa, x2 = 0.4001	0.91 ± 0.16
318.15 K, 100 kPa, x2 = 0.5007	0.79 ± 0.14
318.15 K, 100 kPa, x2 = 0.5987	0.67 ± 0.12
318.15 K, 100 kPa, x2 = 0.7003	0.58 ± 0.1
318.15 K, 100 kPa, x2 = 0.8013	0.51 ± 0.09
318.15 K, 100 kPa, x2 = 0.9002	0.46 ± 0.08
323.15 K, 100 kPa, x2 = 0.1003	1.63 ± 0.29
323.15 K, 100 kPa, x2 = 0.1998	1.24 ± 0.22
323.15 K, 100 kPa, x2 = 0.3011	0.99 ± 0.18
323.15 K, 100 kPa, x2 = 0.4001	0.84 ± 0.15
323.15 K, 100 kPa, x2 = 0.5007	0.73 ± 0.13
323.15 K, 100 kPa, x2 = 0.5987	0.63 ± 0.11
323.15 K, 100 kPa, x2 = 0.7003	0.55 ± 0.1
323.15 K, 100 kPa, x2 = 0.8013	0.48 ± 0.09
323.15 K, 100 kPa, x2 = 0.9002	0.43 ± 0.08
